Results as given in patent US9493478B2, “Fused ring compound containing furan or salt thereof and pharmaceutical composition comprising same” (YUHAN CORPORATION, priority 2012, dated 2016).

Columns and labels:
Format in all cases: biochemical
[1] = target: PI3Kγ (p120γ)(h) (Homo sapiens, UniProt P48736); assay: Assay for phosphatidylinositol 3-kinase gamma (PI3Kγ) activity, PI3K-HTRF kit; conditions: TR-FRET; enzyme 1.45 μg/ml, 10 μM PIP2, 10 μM ATP
Method: (§1) The compounds of the present invention were assayed for the activity of phosphatidylinositol 3-kinase gamma (PI3Kγ) by using a PI3K enzyme-homogenous time resolved fluorescence (PI3K-HTRF) kit, which is available from Upstate (Millipore Co, Billerica, Mass., USA).
(§2) Three kinds of buffer solutions including a phosphorylation reaction solution (a reaction buffer containing 40 mM MgCl2 which is available from Upstate was diluted 4 times and added with 5 mM DTT), a stop solution (STOP A and B solutions which are available from Upstate were mixed at a ratio of 3:1) and a fluorescence detection solution (Detection solutions A, B and C which are available from Upstate were mixed at a ratio of 1:1:18) were prepared. 1 mM of PIP2 substrate (phosphatidylinositol 4,5 biphosphate; Upstate), PI3Kγ (#14-558; Upstate) enzyme and 10 mM ATP (Sigma Aldrich Co., St. Louis, Mo., USA) were prepared. Each of PI3Kγ, 1 mM PIP2 and 10 mM ATP was diluted to 2.9 μg/ml (final reaction concentration: 1.45 μg/ml), 20 μM (final reaction concentration: 10 μM) and 40 μM (final reaction concentration: 10 μM), respectively. The buffer solution used for dilution and preparation process was the phosphorylation reaction solution. The stop solution was used for the termination of phosphorylation reaction, and the fluorescence detection solution was used for the detection of time-resolved fluorescence signals.
(§3) Each test sample was transferred to a 384 well low flange white flat bottom microplate (#3572, Corning Life Sciences, Lowell, Mass., USA) by using a multi 8-channel (Pipetman Neo multi 8×20, Gilson, Middleton, Wis., USA) to make a final phosphorylation reaction volume of 20 μl per each well. For the negative control, 5 μl of 14.4% DMSO and 10 μl of PIP2 substration solution were used, and 5 μl of 14.4% DMSO and 10 μl of PIP2/PI3Kγ mixed solution were used as the positive control. For the test group, 5 μl of a solution prepared by dissolving the compound obtained in Example in DMSO and 10 μl of PIP2/PI3Kγ mixed solution were used. Before the initiation of the phosphorylation reaction, sample compounds were pretreated with the enzyme for approximately 10 minutes, and then the phosphorylation reaction was induced by adding 5 μl of ATP. Since each of the test compound and ATP takes up 25% of the total volume, and PIP2 and PI3Kγ take up 50% of the total volume during the reaction, each solution was concentrated 4 and 2 times, respectively, before mixing the solutions. Subsequently, the test sample was gently shook for 3 minutes and subjected to a phosphorylation reaction for 90 minutes at room temperature, which was then added with 5 μl of the stop solution to terminate the phosphorylation reaction. In order to induce a time-resolved fluorescence reaction, 5 μl of the fluorescence detection solution was added to the sample. The fluorescence detection solution contains biotin-phosphatidylinositol 3,4,5-triphosphate (PIP3), streptavidin-labeled Allopycocyanin (APC) and europium-labeled Pleckstrin homology domain (the PIP3 binds to PH domain), and the time-resolved fluorescence reaction is induced by a series of reaction of PH domain and PIP3, and biotin and streptavidin. The sample was left to stand for 6 hours at room temperature, and the time-resolved fluorescence resonance energy transfer (TR-FRET) rate was measured (emission wavelength: 665 nm, 620 nm, excitation wavelength: 340 nm) by using a Flexstation3 Micro plate reader (Molecular Devices, USA). TR-FRET Rate and TR-Inhibition Rate were calculated based on Equations 1 and 2 below, and the results are expressed in IC50, which is the concentration of a compound that inhibits 50% of PI3Kγ activity in vitro. TR-FRET Rate=(665 nm emission wavelength/620 nm emission wavelength)×10000 <Equation 1> TR-FRET Inhibition Rate=[(TR-FRET Rate of Sample−TR-FRET Rate of Negative Control)/(TR-FRET Rate of Positive Control−TR-FRET Rate of Negative Control)]×100 <Equation 2>

[2] = target: PI3Kα (p110α/p85α)(h) (Homo sapiens, UniProt P42336); assay: Assay for phosphatidylinositol 3-kinase alpha (PI3Kα) activity, PI3K-HTRF kit; conditions: TR-FRET; enzyme 0.3625 μg/ml, 10 μM PIP2, 10 μM ATP
PI3Kα (p110α/p85α)(h), sequence (P42336 whole entry): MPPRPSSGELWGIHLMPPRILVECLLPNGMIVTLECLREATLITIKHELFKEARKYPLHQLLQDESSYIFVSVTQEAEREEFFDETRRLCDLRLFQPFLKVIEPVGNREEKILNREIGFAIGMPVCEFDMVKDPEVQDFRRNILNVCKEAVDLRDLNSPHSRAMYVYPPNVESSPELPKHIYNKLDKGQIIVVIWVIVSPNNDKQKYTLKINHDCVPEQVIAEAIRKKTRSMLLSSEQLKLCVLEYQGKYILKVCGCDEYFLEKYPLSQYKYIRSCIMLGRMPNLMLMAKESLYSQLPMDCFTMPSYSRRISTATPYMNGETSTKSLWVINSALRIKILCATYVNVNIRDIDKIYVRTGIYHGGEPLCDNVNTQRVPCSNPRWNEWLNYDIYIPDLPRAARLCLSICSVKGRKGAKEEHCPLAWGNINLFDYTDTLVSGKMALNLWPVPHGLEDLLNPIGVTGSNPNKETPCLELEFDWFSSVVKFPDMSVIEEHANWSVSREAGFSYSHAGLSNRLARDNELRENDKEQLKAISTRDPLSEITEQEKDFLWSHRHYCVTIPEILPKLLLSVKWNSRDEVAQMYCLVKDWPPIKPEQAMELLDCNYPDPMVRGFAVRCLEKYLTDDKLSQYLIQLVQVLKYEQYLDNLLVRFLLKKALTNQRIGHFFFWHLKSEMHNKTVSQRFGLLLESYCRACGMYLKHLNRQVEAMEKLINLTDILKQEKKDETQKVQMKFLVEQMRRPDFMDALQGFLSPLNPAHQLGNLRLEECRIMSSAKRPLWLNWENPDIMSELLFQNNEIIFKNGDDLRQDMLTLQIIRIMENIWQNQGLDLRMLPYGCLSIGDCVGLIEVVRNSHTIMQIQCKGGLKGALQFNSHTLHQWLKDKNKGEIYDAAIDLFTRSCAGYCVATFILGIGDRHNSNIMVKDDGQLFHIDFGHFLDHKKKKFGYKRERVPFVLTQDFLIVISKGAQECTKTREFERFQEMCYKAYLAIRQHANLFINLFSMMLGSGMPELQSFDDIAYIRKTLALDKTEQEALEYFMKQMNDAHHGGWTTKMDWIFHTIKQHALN
PI3Kα (p110α/p85α)(h), sequence (P27986 whole entry partner): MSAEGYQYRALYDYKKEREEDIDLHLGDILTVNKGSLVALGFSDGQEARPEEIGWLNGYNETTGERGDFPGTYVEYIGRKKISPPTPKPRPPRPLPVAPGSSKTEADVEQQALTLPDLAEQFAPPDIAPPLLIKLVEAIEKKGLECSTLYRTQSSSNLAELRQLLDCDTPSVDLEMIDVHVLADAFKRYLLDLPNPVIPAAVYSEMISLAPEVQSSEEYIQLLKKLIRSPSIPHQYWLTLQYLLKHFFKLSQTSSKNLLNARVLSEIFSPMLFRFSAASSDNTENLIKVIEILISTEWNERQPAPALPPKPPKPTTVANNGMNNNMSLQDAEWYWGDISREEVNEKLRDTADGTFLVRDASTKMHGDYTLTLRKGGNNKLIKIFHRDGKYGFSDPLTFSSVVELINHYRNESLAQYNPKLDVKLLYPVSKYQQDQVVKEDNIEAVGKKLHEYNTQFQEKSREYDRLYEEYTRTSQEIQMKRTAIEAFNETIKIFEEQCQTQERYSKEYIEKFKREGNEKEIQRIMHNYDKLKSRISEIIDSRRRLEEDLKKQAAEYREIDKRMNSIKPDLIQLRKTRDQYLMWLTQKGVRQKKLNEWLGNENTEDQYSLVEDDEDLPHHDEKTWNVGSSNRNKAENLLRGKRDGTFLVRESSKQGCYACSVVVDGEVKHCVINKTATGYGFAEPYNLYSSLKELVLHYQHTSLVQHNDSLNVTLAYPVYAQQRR
Method: [The source words this procedure for another target and says it was used here with some conditions changed.] as §1, §2, §3

[3] = target: PI3Kδ (p110δ/p85α)(h) (Homo sapiens, UniProt O00329); assay: Assay for phosphatidylinositol 3-kinase delta (PI3Kδ) activity, PI3K-HTRF kit; conditions: TR-FRET; enzyme 0.725 μg/ml, 10 μM PIP2, 10 μM ATP
PI3Kδ (p110δ/p85α)(h), sequence (O00329 whole entry): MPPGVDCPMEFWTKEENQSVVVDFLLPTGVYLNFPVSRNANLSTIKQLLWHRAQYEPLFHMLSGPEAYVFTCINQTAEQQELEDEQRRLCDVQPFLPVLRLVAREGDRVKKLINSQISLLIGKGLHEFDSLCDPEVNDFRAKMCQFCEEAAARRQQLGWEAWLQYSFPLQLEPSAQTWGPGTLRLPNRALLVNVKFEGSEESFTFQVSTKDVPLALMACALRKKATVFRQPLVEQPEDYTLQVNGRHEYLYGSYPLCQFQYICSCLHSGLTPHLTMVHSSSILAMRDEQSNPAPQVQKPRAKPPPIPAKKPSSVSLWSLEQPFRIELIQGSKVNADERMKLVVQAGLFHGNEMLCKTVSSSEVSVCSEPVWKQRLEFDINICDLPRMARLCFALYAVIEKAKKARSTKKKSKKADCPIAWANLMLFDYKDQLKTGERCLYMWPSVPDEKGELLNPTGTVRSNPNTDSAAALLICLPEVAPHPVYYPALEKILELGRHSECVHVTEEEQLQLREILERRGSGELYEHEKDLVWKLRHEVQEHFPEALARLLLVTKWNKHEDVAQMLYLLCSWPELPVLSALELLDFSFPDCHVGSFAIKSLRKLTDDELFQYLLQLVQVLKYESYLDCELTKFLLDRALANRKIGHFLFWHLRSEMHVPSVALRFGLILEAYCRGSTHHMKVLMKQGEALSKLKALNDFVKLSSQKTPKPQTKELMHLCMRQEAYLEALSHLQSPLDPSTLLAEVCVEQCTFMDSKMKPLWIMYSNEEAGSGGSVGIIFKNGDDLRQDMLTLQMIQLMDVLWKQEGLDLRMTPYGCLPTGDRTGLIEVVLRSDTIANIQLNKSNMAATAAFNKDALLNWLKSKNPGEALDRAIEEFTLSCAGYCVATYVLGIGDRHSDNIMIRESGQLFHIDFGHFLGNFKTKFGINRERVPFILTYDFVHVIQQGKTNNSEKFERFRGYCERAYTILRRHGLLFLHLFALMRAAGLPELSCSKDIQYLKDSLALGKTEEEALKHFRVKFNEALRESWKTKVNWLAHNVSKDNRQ
PI3Kδ (p110δ/p85α)(h), sequence (P27986 whole entry partner): as the sequence (P27986 whole entry partner) above
Method: [The source words this procedure for another target and says it was used here with some conditions changed.] as §1, §2
as §3, with “2> […]” for “2>”

[4] = target: PI3K β (p110β/p85α)(h) (Homo sapiens, UniProt P42338); assay: Assay for phosphatidylinositol 3-kinase beta (PI3Kβ) activity, PI3K-HTRF kit; conditions: TR-FRET; enzyme 0.725 μg/ml, 10 μM PIP2, 10 μM ATP
PI3K β (p110β/p85α)(h), sequence (P42338 whole entry): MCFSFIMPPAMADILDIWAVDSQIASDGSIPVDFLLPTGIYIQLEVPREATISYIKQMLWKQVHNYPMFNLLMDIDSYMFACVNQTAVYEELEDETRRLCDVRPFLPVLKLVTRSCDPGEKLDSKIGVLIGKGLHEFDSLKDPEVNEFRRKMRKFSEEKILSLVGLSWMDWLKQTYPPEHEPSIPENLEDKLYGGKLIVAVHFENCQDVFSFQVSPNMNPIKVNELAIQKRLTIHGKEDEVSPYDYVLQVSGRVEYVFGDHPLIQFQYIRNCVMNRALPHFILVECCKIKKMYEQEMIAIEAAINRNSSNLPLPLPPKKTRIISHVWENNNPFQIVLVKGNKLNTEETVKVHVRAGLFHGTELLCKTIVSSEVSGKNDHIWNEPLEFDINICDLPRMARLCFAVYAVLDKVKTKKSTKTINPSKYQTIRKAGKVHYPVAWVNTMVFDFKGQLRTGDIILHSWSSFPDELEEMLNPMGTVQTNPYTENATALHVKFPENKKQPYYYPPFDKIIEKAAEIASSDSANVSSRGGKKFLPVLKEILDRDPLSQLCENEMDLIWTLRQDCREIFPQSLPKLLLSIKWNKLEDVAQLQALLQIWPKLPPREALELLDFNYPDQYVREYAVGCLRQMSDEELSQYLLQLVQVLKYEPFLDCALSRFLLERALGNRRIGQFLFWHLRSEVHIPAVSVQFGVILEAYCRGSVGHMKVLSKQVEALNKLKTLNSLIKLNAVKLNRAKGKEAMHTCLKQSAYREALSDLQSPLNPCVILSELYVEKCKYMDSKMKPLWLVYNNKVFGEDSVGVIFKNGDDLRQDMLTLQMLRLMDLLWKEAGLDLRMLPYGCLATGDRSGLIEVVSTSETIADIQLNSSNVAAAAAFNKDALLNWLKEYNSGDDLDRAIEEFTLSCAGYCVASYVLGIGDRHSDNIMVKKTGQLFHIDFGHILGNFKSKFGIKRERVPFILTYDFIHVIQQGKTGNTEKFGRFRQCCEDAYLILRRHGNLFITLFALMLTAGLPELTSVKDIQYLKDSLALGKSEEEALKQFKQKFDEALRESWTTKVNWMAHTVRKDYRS
PI3K β (p110β/p85α)(h), sequence (P27986 whole entry partner): as the sequence (P27986 whole entry partner) above
Method: [The source words this procedure for another target and says it was used here with some conditions changed.] as §1, §2
as §3, with “2> […]” for “2>”

PI3Kγ (p120γ)(h), sequence (P48736 whole entry): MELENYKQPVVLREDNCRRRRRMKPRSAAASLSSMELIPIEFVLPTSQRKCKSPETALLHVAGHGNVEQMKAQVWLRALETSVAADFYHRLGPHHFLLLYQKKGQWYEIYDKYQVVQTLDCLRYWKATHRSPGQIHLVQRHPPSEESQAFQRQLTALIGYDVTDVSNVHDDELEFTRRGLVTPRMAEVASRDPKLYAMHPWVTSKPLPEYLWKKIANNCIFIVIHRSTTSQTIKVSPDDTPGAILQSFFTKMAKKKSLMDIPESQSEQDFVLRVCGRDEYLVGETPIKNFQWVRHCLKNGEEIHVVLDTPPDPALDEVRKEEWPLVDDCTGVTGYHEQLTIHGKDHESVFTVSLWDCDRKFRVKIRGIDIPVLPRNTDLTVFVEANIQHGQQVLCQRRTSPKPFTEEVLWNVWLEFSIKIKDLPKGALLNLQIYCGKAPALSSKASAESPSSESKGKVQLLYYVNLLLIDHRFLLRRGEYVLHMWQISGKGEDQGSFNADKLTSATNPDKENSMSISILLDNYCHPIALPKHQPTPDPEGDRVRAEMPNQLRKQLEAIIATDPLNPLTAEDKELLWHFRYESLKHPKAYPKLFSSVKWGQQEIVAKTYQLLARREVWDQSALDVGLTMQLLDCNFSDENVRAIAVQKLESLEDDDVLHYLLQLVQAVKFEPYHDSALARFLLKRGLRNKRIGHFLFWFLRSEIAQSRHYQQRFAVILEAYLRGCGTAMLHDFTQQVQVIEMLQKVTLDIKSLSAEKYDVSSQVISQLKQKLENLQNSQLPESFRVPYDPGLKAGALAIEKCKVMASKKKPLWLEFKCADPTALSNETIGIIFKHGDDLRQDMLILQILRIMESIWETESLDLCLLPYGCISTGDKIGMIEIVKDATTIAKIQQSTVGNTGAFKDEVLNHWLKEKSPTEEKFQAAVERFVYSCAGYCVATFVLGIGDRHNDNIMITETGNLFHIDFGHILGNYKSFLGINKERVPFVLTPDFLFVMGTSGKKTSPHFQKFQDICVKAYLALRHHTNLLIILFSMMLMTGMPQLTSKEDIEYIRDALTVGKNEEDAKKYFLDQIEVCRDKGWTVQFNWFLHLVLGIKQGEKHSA

Row | SMILES | IC50 [1] [nM] | IC50 [2] [nM] | IC50 [3] [nM] | IC50 [4] [nM]
1 | COc1ccc(-c2cncc3cc(/C=C4\SC(=O)NC4=O)oc23)cc1 [Example 25, (Z)-5-[{7-(4-Methoxyphenyl)furo[3,2-c]pyridin-2-yl}methylene]thiazolidine-2,4-dione] | 5 | 6 | > 10000 | > 10000
2 | COC(=O)c1ccc(C#Cc2cncc3cc(/C=C4\SC(=O)NC4=O)oc23)cc1 [Example 532, (Z)-Methyl 4-([2-{(2,4-dioxothiazolidin-5-ylidene)methyl}furo[3,2-c]pyridin-7-yl]ethynyl)benzoate] | 33 | 5 | 137 | 1390
3 | COc1cc(C#Cc2cncc3cc(/C=C4\SC(=O)NC4=O)oc23)cc(OC)c1 [Example 450, (Z)-5-([7-{(3,5-Dimethoxyphenyl)ethynyl}furo[3,2-c]pyridin-2-yl]methylene)thiazolidine-2,4-dione] | 13 | 8 | > 10000 | 4650
4 | O=C1NC(=O)/C(=C/c2cc3cncc(-c4cccc(NS(=O)(=O)c5ccccc5)c4)c3o2)S1 [Example 141, (Z)—N-(3-[2-{(2,4-Dioxothiazolidin-5-ylidene)methyl}furo[3,2-c]pyridin-7-yl]phenyl)benzenesulfonamide] | 108 | 21 | 51 | 23
5 | CCOC(C#Cc1cncc2cc(/C=C3\SC(=S)NC3=O)oc12)OCC [Example 483, (Z)-5-[{7-(3,3-Diethoxypropyn-1-yl)furo[3,2-c]pyridin-2-yl}methylene]-2-thioxothiazolidin-4-one] | 33 | 23 | 113 | 184
6 | COc1ncc(-c2cncc3cc(/C=C4\SC(=S)NC4=O)oc23)cc1C#N [Example 328, (Z)-2-Methoxy-5-[2-{(4-oxo-2-thioxothiazolidin-5-ylidene)methyl}furo[3,2-c]pyridin-7-yl]nicotinonitrile] | 56 | 15 | > 10000 | 630
7 | O=C1NC(=O)/C(=C/c2cc3cncc(-c4cccc(OCC(F)(F)F)c4)c3o2)S1 [Example 110, (Z)-5-([7-{3-(2,2,2-Trifluoroethoxyl)phenyl}furo[3,2-c]pyridin-2-yl]methylene)thiazolidine-2,4-dione] | 96 | – | 4230 | 293

The remaining compounds from weak to strong by IC50 [1], led by results:

Row | IC50 [1] [nM] | IC50 [2] [nM] | IC50 [3] [nM] | IC50 [4] [nM] | SMILES
8 | 48 | 58 | 4280 | 4340 | O=C1NC(=O)/C(=C/c2cc3cncc(C#CC4CCCC4)c3o2)S1 [Example 435, (Z)-5-[{7-(Cyclopentylethynyl)furo[3,2-c]pyridin-2-yl}methylene]thiazolidine-2,4-dione]
9 | 16 | 10 | 246 | 115 | O=C1NC(=S)S/C1=C\c1cc2cncc(-c3ccc(F)nc3)c2o1 [Example 153, (Z)-5-[{7-(6-Fluoropyridin-3-yl)furo[3,2-c]pyridin-2-yl}methylene]-2-thioxothiazolidin-4-one]
10 | 14 | 4 | > 10000 | > 10000 | COc1ccccc1C#Cc1cncc2cc(/C=C3\SC(=S)NC3=O)oc12 [Example 486, (Z)-5-([7-{(2-Methoxyphenyl)ethynyl}furo[3,2-c]pyridin-2-yl]methylene)-2-thioxothiazolidin-4-one]
11 | 7 | 10 | > 10000 | > 10000 | COc1c(C)cc(-c2cncc3cc(/C=C4\SC(=S)NC4=O)oc23)cc1C [Example 196, (Z)-5-[7-(4-Methoxy-3,5-dimethylphenyl)furo[3,2-c]pyridin-2-ylmethylene]-2-thioxothiazolidin-4-one]
12 | 4 | 19 | 53 | > 10000 | O=C1NC(=S)S/C1=C\c1cc2cncc(-c3cc(Cl)c(S(=O)(=O)N4CCOCC4)c(Cl)c3)c2o1 [Example 343, (Z)-5-([7-{3,5-Dichloro-4-(morpholinosulfonyl)phenyl}furo[3,2-c]pyridin-2-yl]methylene)-2-thioxothiazolidin-4-one]
